# US8921267B2, “Safening 6-(trisubstituted phenyl)-4-amino-2-pyridinecarboxylate herbicide injury on cereal crops” (Dow AgroSciences LLC, priority 2008, dated 2014)
# Experiments:
# [1] = test system: wild buckwheat (Polygonum convolvulus L; POLCO); assay: Postemergence herbicidal activity, greenhouse, visual injury: wild buckwheat; type: in vivo
# Description: (§1) Evaluation of Postemergence Herbicidal Safening in Cereal Crops
# (§2) Seeds of the desired test plant species were planted in Sun Gro MetroMix® 306 planting mixture, which typically has a pH of 6.0 to 6.8 and an organic matter content of about 30 percent, in plastic pots with a surface area of 103.2 square centimeters (cm^2). When required to ensure good germination and healthy plants, a fungicide treatment and/or other chemical or physical treatment was applied. The plants were grown for 7-36 days (d) in a greenhouse with an approximate 14-hour (h) photoperiod which was maintained at about 18° C. during the day and 17° C. during the night. Nutrients and water were added on a regular basis and supplemental lighting was provided with overhead metal halide 1000-Watt lamps as necessary. The plants were employed for testing when they reached the second or third true leaf stage.
# (§3) Weighed amounts of esters (methyl) or salts (TEA [triethylammonium], K [potassium]) of 4-amino-3-chloro-6-(4-chloro-2-fluoro-3-methoxyphenyl)pyridine-2-carboxylic acid (Compound 1) were dissolved in a volume of 97:3 volume/volume (v/v) acetone/dimethylsulfoxide (DMSO) to obtain stock solutions. […] The concentrated stock solutions were diluted with an aqueous mixture of 1.5% v/v of Agri-dex crop oil concentrate to provide the appropriate application rates. Compound requirements are based upon a 12 mL application volume at a rate of 187 liters per hectare (L/ha). Stocks solutions of the safeners were prepared following the same procedure. Spray solutions of the safeners and experimental compound mixtures were prepared by adding the stock solutions to the appropriate amount of dilution solution to form a 12 mL spray solution with active ingredients in two-way combinations. Formulated compounds were applied to the plant material with an overhead Mandel track sprayer equipped with 8002E nozzles calibrated to deliver 187 L/ha over an application area of 0.503 square meters (m^2) at a spray height of 18 inches (43 centimeters (cm)) above average plant canopy. Control plants were sprayed in the same manner with the solvent blank.
# (§4) The treated plants and control plants were placed in a greenhouse as described above and watered by sub-irrigation to prevent wash-off of the test compounds. After 20-22 d, the condition of the test plants as compared with that of the control plants was determined visually and scored on a scale of 0 to 100 percent where 0 corresponds to no injury and 100 corresponds to complete kill.
# (§5) Colby's equation was used to determine the herbicidal effects expected from the mixtures (Colby, S. R. Calculation of the synergistic and antagonistic response of herbicide combinations. Weeds 1967, 15, 20-22.).
# (§6) The following equation was used to calculate the expected activity of mixtures containing two active ingredients, A and B: Expected=A+B−(A×B/100)
# (§7) A=observed efficacy of active ingredient A at the same concentration as used in the mixture.
# (§8) B=observed efficacy of active ingredient B at the same concentration as used in the mixture.
# [2] = test system: Russian thistle (Salsola iberica L; SASKR); assay: Postemergence herbicidal activity, greenhouse, visual injury: Russian thistle; type: in vivo; set-up: key: visual injury, 0–100%: 0 = no injury, 100 = complete kill
# Description: as §1, §2, §3, §4, §5, §6, §7, §8
# [3] = test system: cleavers (Galium aparine L; GALAP); assay: Postemergence herbicidal activity, greenhouse, visual injury: cleavers; type: in vivo; set-up: key: visual injury, 0–100%: 0 = no injury, 100 = complete kill
# Description: as §1, §2, §3, §4, §5, §6, §7, §8
# [4] = test system: corn poppy (Papaver rhoeas L; PAPRH); assay: Postemergence herbicidal activity, greenhouse, visual injury: corn poppy; type: in vivo
# Description: as §1, §2, §3, §4, §5, §6, §7, §8
# [5] = test system: chickweed (Stellaria media L; STEME); assay: Postemergence herbicidal activity, greenhouse, visual injury: chickweed; type: in vivo; set-up: key: visual injury, 0–100%: 0 = no injury, 100 = complete kill
# Description: as §1, §2, §3, §4, §5, §6, §7, §8
# [6] = test system: wild pansy (Viola tricolor L; VIOTR); assay: Postemergence herbicidal activity, greenhouse, visual injury: wild pansy; type: in vivo; set-up: key: visual injury, 0–100%: 0 = no injury, 100 = complete kill
# Description: as §1, §2, §3, §4, §5, §6, §7, §8
# [7] = test system: bird's-eye speedwell (Veronica persica L; VERPE); assay: Postemergence herbicidal activity, greenhouse, visual injury: bird's-eye speedwell; type: in vivo; set-up: key: visual injury, 0–100%: 0 = no injury, 100 = complete kill
# Description: as §1, §2, §3, §4, §5, §6, §7, §8
# barley (HORVW) = assay: Postemergence herbicidal safening, greenhouse, visual injury: barley (HORVW)
# [8] = test system: durum wheat (Triticum durum L; TRZDU); assay: Postemergence herbicidal safening, greenhouse, visual injury: durum wheat; type: in vivo
# Description: as §1, §2, §3, §4, §5, §6, §7, §8
# [9] = test system: purple deadnettle (Lamium purpureum L; LAMPU); assay: Postemergence herbicidal activity, greenhouse, visual injury: purple deadnettle; type: in vivo; set-up: key: visual injury, 0–100%: 0 = no injury, 100 = complete kill
# Description: as §1, §2, §3, §4, §5, §6, §7, §8
# [10] = test system: wheat (Triticum aestivum L; TRZAW); assay: Postemergence herbicidal safening, greenhouse, visual injury: wheat (TRZAW); type: in vivo
# Description: as §1, §2, §3, §4, §5, §6, §7, §8
# [11] = test system: wheat (Triticum aestivum L; TRZAS); assay: Postemergence herbicidal safening, greenhouse, visual injury: wheat; type: in vivo
# Description: as §1, §2, §3, §4, §5, §6, §7, §8
# [12] = test system: barley (Hordeum vulgare L; HORVS); assay: Postemergence herbicidal safening, greenhouse, visual injury: barley; type: in vivo
# Description: as §1, §2, §3, §4, §5, §6, §7, §8
smiles,measurement,setting,value
O=C1OC(=O)c2cccc3cccc1c23 [Naphthalic anhydride],POLCO Ob,"[1]; applied alone, 17.5 g/ha",0
same,POLCO Ob,"[1]; applied alone, 35 g/ha",0
same,POLCO Ob,"[1]; applied alone, 70 g/ha",0
same,POLCO Ob,"[1]; applied alone, 140 g/ha",0
same,SASKR Ob,"[2]; applied alone, 17.5 g/ha",0
same,SASKR Ob,"[2]; applied alone, 35 g/ha",0
same,SASKR Ob,"[2]; applied alone, 70 g/ha",0
same,SASKR Ob,"[2]; applied alone, 140 g/ha",0
same,GALAP Ob,"[3]; applied alone, 17.5 g/ha",0
same,GALAP Ob,"[3]; applied alone, 35 g/ha",0
same,GALAP Ob,"[3]; applied alone, 70 g/ha",0
same,GALAP Ob,"[3]; applied alone, 140 g/ha",0
same,PAPRH Ob,"[4]; applied alone, 17.5 g/ha",0
same,PAPRH Ob,"[4]; applied alone, 35 g/ha",0
same,PAPRH Ob,"[4]; applied alone, 70 g/ha",0
same,PAPRH Ob,"[4]; applied alone, 140 g/ha",0
same,STEME Ob,"[5]; applied alone, 17.5 g/ha",0
same,STEME Ob,"[5]; applied alone, 35 g/ha",0
same,STEME Ob,"[5]; applied alone, 70 g/ha",0
same,STEME Ob,"[5]; applied alone, 140 g/ha",0
same,VIOTR Ob,"[6]; applied alone, 17.5 g/ha",0
same,VIOTR Ob,"[6]; applied alone, 35 g/ha",0
same,VIOTR Ob,"[6]; applied alone, 70 g/ha",0
same,VIOTR Ob,"[6]; applied alone, 140 g/ha",0
same,VERPE Ob,"[7]; applied alone, 17.5 g/ha",0
same,VERPE Ob,"[7]; applied alone, 35 g/ha",0
same,VERPE Ob,"[7]; applied alone, 70 g/ha",0
same,VERPE Ob,"[7]; applied alone, 140 g/ha",0
O=C(C(Cl)Cl)N1CCOC12CCCCC2 [AD-67],HORVW Ob (Observed values),barley (HORVW); safener 4.4 g/ha alone,0%
same,HORVW Ob (Observed values),barley (HORVW); safener 8.8 g/ha alone,0%
same,HORVW Ob (Observed values),barley (HORVW); safener 17.5 g/ha alone,0%
same,HORVW Ob (Observed values),barley (HORVW); safener 35 g/ha alone,0%
same,TRZDU Ob (Observed values),[8]; safener 4.4 g/ha alone,0%
same,TRZDU Ob (Observed values),[8]; safener 8.8 g/ha alone,0%
same,TRZDU Ob (Observed values),[8]; safener 17.5 g/ha alone,0%
same,TRZDU Ob (Observed values),[8]; safener 35 g/ha alone,0%
same,PAPRH Ob (Observed values),[4]; safener 4.4 g/ha alone,0
same,PAPRH Ob (Observed values),[4]; safener 8.8 g/ha alone,0
same,PAPRH Ob (Observed values),[4]; safener 17.5 g/ha alone,0
same,PAPRH Ob (Observed values),[4]; safener 35 g/ha alone,0
same,LAMPU Ob (Observed values),[9]; safener 4.4 g/ha alone,0
same,LAMPU Ob (Observed values),[9]; safener 8.8 g/ha alone,0
same,LAMPU Ob (Observed values),[9]; safener 17.5 g/ha alone,0
same,LAMPU Ob (Observed values),[9]; safener 35 g/ha alone,0
same,TRZAW Ob (Observed values),[10]; safener 4.4 g/ha alone,0%
same,TRZAW Ob (Observed values),[10]; safener 8.8 g/ha alone,0%
same,TRZAW Ob (Observed values),[10]; safener 17.5 g/ha alone,0%
same,TRZAW Ob (Observed values),[10]; safener 35 g/ha alone,0%
"CC1(C)CN2C(=O)CCC2(C)N(C(=O)C(Cl)Cl)C1 (racemic) [Dicyclonon, (RS)-1-dichloroacetyl-3,3,8a-trimethylperhydropyrrolo[1,2]pyrimidin-6-one, reference compound]",POLCO Ob,[1]; applied alone at 17.5 g/ha,0%
same,POLCO Ob,[1]; applied alone at 35 g/ha,0%
same,POLCO Ob,[1]; applied alone at 70 g/ha,0%
same,POLCO Ob,[1]; applied alone at 140 g/ha,0%
same,SASKR Ob,[2]; applied alone at 17.5 g/ha,0%
same,SASKR Ob,[2]; applied alone at 35 g/ha,0%
same,SASKR Ob,[2]; applied alone at 70 g/ha,0%
same,SASKR Ob,[2]; applied alone at 140 g/ha,0%
same,HORVW Ob (Observed values),barley (HORVW); safener 4.4 g/ha alone,0%
same,HORVW Ob (Observed values),barley (HORVW); safener 8.8 g/ha alone,0%
same,HORVW Ob (Observed values),barley (HORVW); safener 17.5 g/ha alone,0%
same,HORVW Ob (Observed values),barley (HORVW); safener 35 g/ha alone,0%
same,GALAP Ob,[3]; applied alone at 17.5 g/ha,0%
same,GALAP Ob,[3]; applied alone at 35 g/ha,0%
same,GALAP Ob,[3]; applied alone at 70 g/ha,0%
same,GALAP Ob,[3]; applied alone at 140 g/ha,0%
same,PAPRH Ob,[4]; applied alone at 17.5 g/ha,0%
same,PAPRH Ob,[4]; applied alone at 35 g/ha,0%
same,PAPRH Ob,[4]; applied alone at 70 g/ha,0%
same,PAPRH Ob,[4]; applied alone at 140 g/ha,0%
same,PAPRH Ob (Observed values),[4]; safener 4.4 g/ha alone,0
same,PAPRH Ob (Observed values),[4]; safener 8.8 g/ha alone,0
same,PAPRH Ob (Observed values),[4]; safener 17.5 g/ha alone,0
same,PAPRH Ob (Observed values),[4]; safener 35 g/ha alone,0
same,LAMPU Ob (Observed values),[9]; safener 4.4 g/ha alone,0
same,LAMPU Ob (Observed values),[9]; safener 8.8 g/ha alone,0
same,LAMPU Ob (Observed values),[9]; safener 17.5 g/ha alone,0
same,LAMPU Ob (Observed values),[9]; safener 35 g/ha alone,0
same,STEME Ob,[5]; applied alone at 17.5 g/ha,0%
same,STEME Ob,[5]; applied alone at 35 g/ha,0%
same,STEME Ob,[5]; applied alone at 70 g/ha,0%
same,STEME Ob,[5]; applied alone at 140 g/ha,0%
same,TRZAS Ob,[11]; applied alone at 17.5 g/ha,0%
same,TRZAS Ob,[11]; applied alone at 35 g/ha,0%
same,TRZAS Ob,[11]; applied alone at 70 g/ha,0%
same,TRZAS Ob,[11]; applied alone at 140 g/ha,0%
same,HORVS Ob,[12]; applied alone at 17.5 g/ha,0%
same,HORVS Ob,[12]; applied alone at 35 g/ha,0%
same,HORVS Ob,[12]; applied alone at 70 g/ha,0%
same,HORVS Ob,[12]; applied alone at 140 g/ha,0%
same,VIOTR Ob,[6]; applied alone at 17.5 g/ha,0%
same,VIOTR Ob,[6]; applied alone at 35 g/ha,0%
same,VIOTR Ob,[6]; applied alone at 70 g/ha,0%
same,VIOTR Ob,[6]; applied alone at 140 g/ha,0%
same,VERPE Ob,[7]; applied alone at 17.5 g/ha,0%
same,VERPE Ob,[7]; applied alone at 35 g/ha,0%
same,VERPE Ob,[7]; applied alone at 70 g/ha,0%
same,VERPE Ob,[7]; applied alone at 140 g/ha,0%
